Our source for the IC50 values is patent publication US20260001864A1, “COMPOUND CONTAINING SULFAMIDE STRUCTURE, AND PREPARATION METHOD THEREFOR AND APPLICATION THEREOF, AND PHARMACEUTICAL COMPOSITION AND APPLICATION” (Nanjing Shuohui Pharmatechnology Co., Ltd, priority 2021, published 2026).

This assay has as its target H+/K+-ATPase (rabbit gastric mucosal microsomes) (Oryctolagus cuniculus (Rabbit), UniProt P27112). The assay can be described thus: In vitro screening test of H+/K+-ATPase inhibition (malachite green). In kind it is biochemical. Conditions: pH 6.5, 37° C. 30 min, read-out: IC50, inhibitory effect on H+/K+-ATPase activity. The text has this: This test example evaluates the inhibitory effects of the compounds of the present invention on the activity of H+/K+-ATPase by an in vitro screening test, and expresses them with the IC50 values of the compounds (obtained by calculating the inhibition rates at different concentrations).
• Compound solutions: The products (i.e., the compounds or the hydrochloride salt of compounds) obtained in the foregoing preparation examples of the present invention were each independently dissolved in DMSO to form solutions at suitable concentrations; • Buffer I: 50 mmol/L HEPEs-Tris, pH=6.5, 5 mmol/L magnesium chloride, […] valinomycin (J&K Scientific Ltd., goods No.: 227304); • Buffer II: 50 mmol/L HEPEs-Tris, pH=6.5, 5 mmol/L magnesium chloride, […] valinomycin, 5 mmol/L potassium chloride; • 5-adenosine triphosphate (ATP, Sigma-Aldrich, goods No.: A2383) solution: Dilute ATP with buffer I to 5 mM; • Malachite green solution: Dissolve 0.12 wt % malachite green (J&K Scientific Ltd., goods No.: 913120) in 2.5 mol/L sulfuric acid, 7.5 wt % ammonium molybdate (J&K Scientific Ltd., goods No.: 128321) and 11% Tween 20(V/V). During use, sulfuric acid, ammonium molybdate and Tween 20 are mixed in a ratio of 100:25:2; • Rabbit gastric mucosal microsomes (rich in H+/K+-ATPase, self-extracted), extracted by sucrose gradient centrifugation: The rabbit stomach was washed with tap water and 3M NaCl solution, respectively, and then the surface water was removed with filter paper. A pre-cooled homogenization buffer (4 ml/g tissue) was added and homogenized for 2-5 min in a tissue homogenizer. After the homogenizing, if there are large tissue particles, they can be removed by centrifugation (600 g, 10 min). The supernatant was then transferred to a clean centrifuge tube and centrifuged at 20,000 g for 30 min, then the supernatant was transferred to a clean centrifuge tube and further centrifuged at 100,000 g for 90 min and the precipitate was collected; the precipitate was suspended in homogenate and blown evenly, and the protein concentration was measured by the Bradford's method and adjusted to 10 mg/ml; 7.5 wt % Ficoll's layering solution was added in equal proportions. After centrifugation at 100,000 g for 60 min, the middle layer (H^+/K^+-ATPase-enriched gastric membranes) was collected in a clean centrifuge tube, diluted with homogenate by 4-5 times, and then centrifuged at 100,000 g for another 90 min, and the precipitate was collected; the precipitate was suspended in homogenate and homogenized in a glass homogenizer, and the protein concentration was measured by the Bradford's method and adjusted to 22.5 mg/ml. It was frozen at −80° C. and stored for future use.
5 μL of rabbit gastric mucosal microsomes (H^+/K^+-ATPase) was added to 45 μL of buffer II, then 5 μL of compound solution was added, and then 5 μL of 5 mM ATP solution was added to start the reaction and pre-react at 37° C. for 30 min. 15 μL of malachite green solution was added to terminate the reaction, balancing was conducted at room temperature for 20 min, and read the optical absorbance at 620 nm.
Meanwhile, the reaction of the same volume was carried out without addition of potassium chloride as a background, which was subtracted when calculating enzymatic activity.

Each structure is given as a SMILES string. pIC50: −log10 of the molar value. Where a name gives a salt, the structure may show the parent alone.

Chain of H+/K+-ATPase (rabbit gastric mucosal microsomes) (P27112 whole entry): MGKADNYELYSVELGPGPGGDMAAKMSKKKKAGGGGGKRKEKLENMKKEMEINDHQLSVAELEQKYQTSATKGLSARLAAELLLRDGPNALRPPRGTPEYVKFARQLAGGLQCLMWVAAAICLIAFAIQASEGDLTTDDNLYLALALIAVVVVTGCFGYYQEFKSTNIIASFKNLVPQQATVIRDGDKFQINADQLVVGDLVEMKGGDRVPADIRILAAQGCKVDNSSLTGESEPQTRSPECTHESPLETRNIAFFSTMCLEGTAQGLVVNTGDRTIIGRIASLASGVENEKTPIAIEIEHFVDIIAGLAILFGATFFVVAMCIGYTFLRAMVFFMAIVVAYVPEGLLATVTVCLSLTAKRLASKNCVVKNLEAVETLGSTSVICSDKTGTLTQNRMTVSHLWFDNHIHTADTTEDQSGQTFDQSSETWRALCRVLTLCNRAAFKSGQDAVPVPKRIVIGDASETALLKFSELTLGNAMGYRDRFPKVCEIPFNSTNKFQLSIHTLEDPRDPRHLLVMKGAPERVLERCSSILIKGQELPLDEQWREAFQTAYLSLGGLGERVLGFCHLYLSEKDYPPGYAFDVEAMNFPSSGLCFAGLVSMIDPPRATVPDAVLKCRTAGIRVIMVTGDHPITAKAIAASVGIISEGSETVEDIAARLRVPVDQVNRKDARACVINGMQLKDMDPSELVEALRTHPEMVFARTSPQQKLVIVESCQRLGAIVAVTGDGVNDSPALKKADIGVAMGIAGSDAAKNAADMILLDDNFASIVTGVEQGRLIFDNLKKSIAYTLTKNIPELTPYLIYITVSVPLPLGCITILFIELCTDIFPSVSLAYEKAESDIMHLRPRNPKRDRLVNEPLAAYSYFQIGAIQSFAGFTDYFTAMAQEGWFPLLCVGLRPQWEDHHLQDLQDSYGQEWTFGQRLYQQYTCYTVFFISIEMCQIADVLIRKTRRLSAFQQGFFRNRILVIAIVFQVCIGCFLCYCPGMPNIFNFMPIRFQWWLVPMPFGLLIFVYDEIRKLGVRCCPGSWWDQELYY
Chain of H+/K+-ATPase (rabbit gastric mucosal microsomes) (P18597 whole entry partner): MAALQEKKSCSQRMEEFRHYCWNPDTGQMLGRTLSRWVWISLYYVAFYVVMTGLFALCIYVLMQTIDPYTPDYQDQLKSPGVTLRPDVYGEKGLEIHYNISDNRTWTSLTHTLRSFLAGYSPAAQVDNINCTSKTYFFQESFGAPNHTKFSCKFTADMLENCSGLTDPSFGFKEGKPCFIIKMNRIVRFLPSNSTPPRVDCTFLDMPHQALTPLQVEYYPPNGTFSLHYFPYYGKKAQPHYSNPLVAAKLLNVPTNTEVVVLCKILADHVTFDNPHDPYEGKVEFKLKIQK

With `CNCc1cc(-c2ccc(OCC3CCNCC3)cc2F)n(S(=O)(=O)c2cccnc2)c1` [Compound 21], the pIC50 is 5.55.
For the compound `CNCc1cc(-c2ccc(OC(C)c3c(F)cccc3F)cc2F)n(S(=O)(=O)c2cccc(OCCCOC)c2)c1` (stereo not drawn) [Compound 88], the pIC50 was 6.35.
As to `CNCc1cc(-c2ccc(OCc3ccoc3)cc2F)n(S(=O)(=O)c2cccnc2)c1` [Compound 100], the pIC50 is 6.99.
Take `CNCc1cc(-c2ccc(OC(C)C3CCCCC3)cc2F)n(S(=O)(=O)c2cccnc2)c1` (stereo not drawn) [Compound 20]: the pIC50 was 6.53.
The figure for `CNCc1cc(-c2ccc(OCC(F)F)cc2F)n(S(=O)(=O)c2cccnc2)c1` [Compound 42] is 6.40; for `CNCc1cc(-c2ccc(OCc3ccsc3)cc2F)n(S(=O)(=O)c2cccnc2)c1` [Compound 77] it is 6.92.
As to `CNCc1cc(-c2ccc(OC(C)C3CCOCC3)cc2F)n(S(=O)(=O)c2cccc(OCC3CCC3)c2)c1` (stereo not drawn) [Compound 33], the pIC50 is 6.05.
The value for `CNCc1cc(-c2ccc(OC[C@@H]3COCCO3)cc2F)n(S(=O)(=O)c2cccnc2)c1` [Compound 1, (S)-1-(5-(4-((1,4-dioxane-2-yl)methoxy)-2-fluorophenyl)-1-(pyridine-3-ylsulfonyl)-1H-pyrrole-3-yl)-N-methyl methylamine hydrochloride] was 6.23; that for `CNCc1cc(-c2ccc(OC(C)c3cc(F)ccc3F)cc2F)n(S(=O)(=O)c2cccnc2)c1` (stereo not drawn) [Compound 65] was 7.09.
Regarding `CCCCCOc1cccc(S(=O)(=O)n2cc(CNC)cc2-c2ccc(OCc3cc(F)ccc3F)cc2F)c1` [Compound 82], the pIC50 is 5.44.
The value for `CNCc1cc(-c2ccc(OCc3cccc4c3OCCO4)cc2F)n(S(=O)(=O)c2cccnc2)c1` [Compound 96] was 7.29.
For `CNCc1cc(-c2ccc(OCc3cc(F)ccc3F)cc2F)n(S(=O)(=O)c2cccc(F)c2)c1` [Compound 79], the pIC50 is 7.26.
The value for `CNCc1cc(-c2ccc(OCc3cc(F)ccc3F)cc2F)n(S(=O)(=O)c2cccc(C(F)(F)F)c2)c1` [Compound 98] was 6.31.
The value for `CNCc1cc(-c2ccc(OC(C)c3cc(F)cc(F)c3)cc2F)n(S(=O)(=O)c2cccc(OCCCCOC)c2)c1` (stereo not drawn) [Compound 92] was 5.72.
The value for `CNCc1cc(-c2ccc(OCc3ncccc3F)cc2F)n(S(=O)(=O)c2cccnc2)c1` [Compound A6] was 6.80; that for `CNCc1cc(-c2ccc(OC(C)c3cc(F)cc(F)c3)cc2F)n(S(=O)(=O)c2cccnc2)c1` (stereo not drawn) [Compound 68] was 7.38.
With `CNCc1cc(-c2ccc(OC(C)c3c(F)cccc3F)cc2F)n(S(=O)(=O)c2cccc(OCC3CCC3)c2)c1` (stereo not drawn) [Compound 83], the pIC50 was 4.87.
The figure for `CNCc1cc(-c2ccc(OCc3cccc4ccccc34)cc2F)n(S(=O)(=O)c2cccnc2)c1` [Compound 62] is 7.44; for `CNCc1cc(-c2ccc(O[C@H](C)c3c(Cl)ccc(F)c3Cl)cc2F)n(S(=O)(=O)c2cccnc2)c1` [Compound 76] it is 6.33; for `CNCc1cc(-c2ccc(OC(C)C3CCOCC3)cc2F)n(S(=O)(=O)c2ccc(C#N)cc2)c1` (stereo not drawn) [Compound 18] it is 6.58.
The figure for `CNCc1cc(-c2ccc(OC(C)c3cc(F)cc(F)c3)cc2F)n(S(=O)(=O)c2cccc(C#N)c2)c1` (stereo not drawn) [Compound 70] is 7.06; for `CNCc1cc(-c2ccc(OCC3CCOCC3)cc2F)n(S(=O)(=O)c2cccc(OCCF)c2)c1` [Compound 30] it is 6.32.
The figure for `CNCc1cc(-c2ccc(OC(C)C3CCOCC3)cc2F)n(S(=O)(=O)c2ccc(C)c(F)c2)c1` (stereo not drawn) [Compound 11] is 7.19.
On to `CNCc1cc(-c2ccc(OC(C)C3CCOCC3)cc2F)n(S(=O)(=O)c2cc(F)ccc2F)c1` (stereo not drawn) [Compound 12], for which the pIC50 is 6.86.
Regarding `CNCc1cc(-c2ccc(OC[C@H]3CO3)cc2F)n(S(=O)(=O)c2cccnc2)c1` [Compound 49], the pIC50 is 6.84.
Consider `CNCc1cc(-c2ccc(OCCc3cc(F)cc(F)c3)cc2F)n(S(=O)(=O)c2cccnc2)c1` [Compound 99], for which the pIC50 is 7.14.
For `CNCc1cc(-c2ccc(OCC(C)(C)C)cc2F)n(S(=O)(=O)c2cccnc2)c1` [Compound 45], the pIC50 was 6.69.
The value for `CNCc1cc(-c2ccc(OCc3ccccc3OC)cc2F)n(S(=O)(=O)c2cccnc2)c1` [Compound 75] was 7.44; that for `CNCc1cc(-c2ccc(OCc3cccc4ccccc34)cc2F)n(S(=O)(=O)c2cccc(C#N)c2)c1` [Compound 63] was 5.98; that for `CNCc1cc(-c2ccc(OC(C)C3CCOCC3)c(F)c2)n(S(=O)(=O)c2cccnc2)c1` (stereo not drawn) [Compound 47] was 6.61.
The value for `CNCc1cc(-c2ccc(OC(C)c3c(F)cccc3F)cc2F)n(S(=O)(=O)c2cccc(OCC3CCCC3)c2)c1` (stereo not drawn) [Compound 85] was 5.01.
As for `CNCc1cc(-c2ccc(OCc3cc(F)ccc3F)cc2F)n(S(=O)(=O)c2cccc(OCC3CCCC3)c2)c1` [Compound 84], the pIC50 is 6.96.
Regarding `CNCc1cc(-c2ccc(OC(C)C3CCOCC3)cc2F)n(S(=O)(=O)c2cccc(C(F)(F)F)c2)c1` (stereo not drawn) [Compound 10], the pIC50 was 7.26.
For `CNCc1cc(-c2ccc(O[C@@H](C)c3c(Cl)ccc(F)c3Cl)cc2F)n(S(=O)(=O)c2cccnc2)c1` [Compound 66], the pIC50 was 6.31.
The figure for `CNCc1cc(-c2ccc(OCc3cc(F)ccc3F)cc2F)n(S(=O)(=O)c2cc(F)cc(F)c2)c1` [Compound 80] is 7.18.
The value for `CNCc1cc(-c2ccc(OCC3CCOCC3)cc2F)n(S(=O)(=O)c2ccc(C#N)cc2)c1` [Compound 29] was 6.54; that for `CNCc1cc(-c2ccc(OC(C)C3CCOCC3)cc2F)n(S(=O)(=O)c2cccc(F)c2)c1` (stereo not drawn) [Compound 19] was 6.63.
The figure for `CNCc1cc(-c2ccc(OC(C)C3CCOCC3)cc2F)n(S(=O)(=O)c2cccc(C#N)c2)c1` (stereo not drawn) [Compound 13] is 6.94; for `CNCc1cc(-c2ccc(OCc3ccc(C(=O)O)cc3)cc2F)n(S(=O)(=O)c2cccnc2)c1` [Compound 64] it is 6.79.
Regarding `CCOc1ccc(-c2cc(CNC)cn2S(=O)(=O)c2cccnc2)c(F)c1` [Compound 41], the pIC50 was 6.25.
On to `CNCc1cc(-c2ccc(OC(C)C3CCOCC3)cc2F)n(S(=O)(=O)c2cccc(OCCOC)c2)c1` (stereo not drawn) [Compound 14, 1-(5-(2-fluoro-4-(1-(tetrahydro-2H-pyran-4-yl)ethoxy)phenyl)-1-((3-(2-methoxyethoxy)phenyl)sulfonyl)-1H-pyrrol-3-yl)-N-methylmethylamine-hydrochloride], for which the pIC50 is 6.35.
The figure for `CNCc1cc(-c2ccc(OCC3CCCCC3)cc2F)n(S(=O)(=O)c2cccc(OCCF)c2)c1` [Compound 35] is 5.06; for `CNCc1cc(-c2ccc(OC(C)c3cc(F)cc(F)c3)cc2F)n(S(=O)(=O)c2cccc(OCC3CC3)c2)c1` (stereo not drawn) [Compound 71] it is 6.30; for `CNCc1cc(-c2ccc(OCC3CCCCO3)cc2F)n(S(=O)(=O)c2cccnc2)c1` (stereo not drawn) [Compound 7] it is 6.60.
Regarding `CNCc1cc(-c2ccc(OCc3ccccc3OC)cc2F)n(S(=O)(=O)c2cccc(OCCOC)c2)c1` [Compound 87], the pIC50 is 7.36.
The value for `CNCc1cc(-c2ccc(OCc3cccc4c3OCO4)cc2F)n(S(=O)(=O)c2cccnc2)c1` [Compound 94] was 7.32.
The figure for `CNCc1cc(-c2ccc(OCc3ccc(C)cc3C)cc2F)n(S(=O)(=O)c2cccnc2)c1` [Compound 73] is 6.68; for `CNCc1cc(-c2ccc(OCCCOC)cc2F)n(S(=O)(=O)c2cccnc2)c1` [Compound 43] it is 6.32; for `CNCc1cc(-c2ccc(OCC3CCOCC3)cc2F)n(S(=O)(=O)c2cccc(Cl)c2)c1` [Compound 25] it is 7.23.
The value for `CNCc1cc(-c2ccc(OC(C)C3CCOCC3)cc2F)n(S(=O)(=O)c2cc(F)cc(F)c2)c1` (stereo not drawn) [Compound 9] was 7.60; that for `CNCc1cc(-c2ccc(OCc3cccc4c3OCO4)cc2F)n(S(=O)(=O)c2cccc(OCCCCOC)c2)c1` [Compound 93] was 4.91.
